# Patent publication US6414038B2, “Hydroxystilbenes for reducing/inhibiting protein glycation and combating skin aging” (Societe L'Oreal, priority 1999, dated 2002)
# Where two headings read alike, the source gives them in different places.
# Target: bovine serum albumin (Bos taurus, UniProt P02769)
# Assay: Inhibition of glycation of bovine serum albumin by D-ribose (AGE fluorescence)
# Format: biochemical
# Settings: for inhibition at 1 µM / inhibition at 10 µM: read-out: % inhibition (of glycation)
# Method: A solution of bovine serum albumin at 1 mg/ml in solution in phosphate buffered saline (PBS) was incubated at 37° C. for 14 days in the presence or in the absence of D-ribose at the concentration of […], of 3,3′,5,5′-tetrahydroxystilbene or of resveratrol, each at the concentrations of 1 μM and 10 μM.
# The glycation was evaluated by measuring the fluorescence of the AGEs at λem.=440 nm emitted by each sample after excitation at λex.=370 nm.
# The inhibition of glycation was visualized by the reduction in the fluorescence compared with the sample treated with the sugar alone.
# Chain of bovine serum albumin (P02769 25-607): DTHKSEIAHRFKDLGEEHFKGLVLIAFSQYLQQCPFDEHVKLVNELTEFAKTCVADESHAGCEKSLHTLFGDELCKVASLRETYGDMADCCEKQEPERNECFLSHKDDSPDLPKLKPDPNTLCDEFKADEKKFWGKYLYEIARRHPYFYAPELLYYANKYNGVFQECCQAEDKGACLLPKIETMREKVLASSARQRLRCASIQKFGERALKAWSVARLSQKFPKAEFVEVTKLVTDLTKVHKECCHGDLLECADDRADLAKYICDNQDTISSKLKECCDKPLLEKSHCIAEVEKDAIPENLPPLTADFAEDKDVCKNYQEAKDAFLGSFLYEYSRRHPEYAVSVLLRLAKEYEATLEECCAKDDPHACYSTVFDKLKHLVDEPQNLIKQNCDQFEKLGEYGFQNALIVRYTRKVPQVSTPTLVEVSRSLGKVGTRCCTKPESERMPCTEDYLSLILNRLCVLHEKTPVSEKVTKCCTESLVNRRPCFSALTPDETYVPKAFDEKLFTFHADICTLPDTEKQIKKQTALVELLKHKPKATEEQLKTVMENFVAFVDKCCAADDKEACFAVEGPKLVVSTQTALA
"inhibition at 1 µM (compound 1 μM, BSA 1 mg/ml in PBS, D-ribose 10 μM, 37° C., 14 days, AGE fluorescence λex 370 nm/λem 440 nm vs sugar alone)","inhibition at 10 µM (compound 10 μM, BSA 1 mg/ml in PBS, D-ribose 10 μM, 37° C., 14 days, AGE fluorescence λex 370 nm/λem 440 nm vs sugar alone)",antiglycation effect relative to resveratrol (at the concentration of 10 μM),antiglycation effect (in words) (from the concentration of 1 μM),inhibition at 1 µM,inhibition at 10 µM,SMILES
7.1%,7.1%,,,,,"Oc1ccc(C=Cc2cc(O)cc(O)c2)cc1 [B, resveratrol, reference compound]"
,,~2 times,advantageous antiglycation effect,7.1%,14.3%,"Oc1cc(O)cc(/C=C/c2cc(O)cc(O)c2)c1 [A, 3,3′,5,5′-tetrahydroxystilbene]"
